Test results from the NIST ThermoML archive (doi:10.1021/je100757w).
“And” between values parts separate entries of the source, which are not always exact repeats. Equal entries are not always repeated. ± gives the expanded uncertainty stated by the source.

Assay: xn = mol fraction of the nth substance listed
Conditions: for surface tension liquid-gas: Ring tensiometer; for mass density: 101.3 kPa, Liquid

COCCOCCOCCOC [2,5,8,11-tetraoxadodecane] + O
Conditions | mass density [kg/m3] | surface tension liquid-gas
298.15 K, x1 = 0.0012 | – | 53.35 ± 0.89 mN/m
298.15 K, x1 = 0.0024 | – | 51.27 ± 0.87 mN/m
298.15 K, x1 = 0.0029 | – | 49.07 ± 0.85 mN/m
298.15 K, x1 = 0.0036 | – | 48.59 ± 0.84 mN/m
298.15 K, x1 = 0.0043 | – | 47.6 ± 0.83 mN/m
298.15 K, x1 = 0.0173 | 1006.22 ± 0.27 | –
298.15 K, x1 = 0.0206 | – | 40.6 ± 0.78 mN/m
298.15 K, x1 = 0.0375 | – | 38.88 ± 0.77 mN/m
298.15 K, x1 = 0.0695 | – | 36.2 ± 0.75 mN/m
298.15 K, x1 = 0.0905 | – | 33.99 ± 0.74 mN/m
298.15 K, x1 = 0.0914 | 1019.65 ± 0.32 | –
298.15 K, x1 = 0.1223 | – | 33.06 ± 0.74 mN/m
298.15 K, x1 = 0.163 | – | 32.87 ± 0.74 mN/m
298.15 K, x1 = 0.1739 | 1017.24 ± 0.34 | –
298.15 K, x1 = 0.2731 | 1009.97 ± 0.36 | –
298.15 K, x1 = 0.2911 | – | 32.23 ± 0.74 mN/m
298.15 K, x1 = 0.3468 | 1004.7 ± 0.38 | –
298.15 K, x1 = 0.3517 | – | 31.66 ± 0.73 mN/m
298.15 K, x1 = 0.4515 | 998.25 ± 0.44 | –
298.15 K, x1 = 0.4658 | – | 31.16 ± 0.74 mN/m
298.15 K, x1 = 0.5727 | 992.4 ± 0.55 | –
298.15 K, x1 = 0.583 | – | 30.5 ± 0.7 mN/m
298.15 K, x1 = 0.6451 | 989.7 ± 0.62 | –
298.15 K, x1 = 0.659 | – | 30.09 ± 0.74 mN/m
298.15 K, x1 = 0.7279 | – | 29.54 ± 0.75 mN/m
298.15 K, x1 = 0.7766 | 985.98 ± 0.77 | –
298.15 K, x1 = 0.821 | – | 29.05 ± 0.75 mN/m
298.15 K, x1 = 0.8679 | 984.02 ± 0.89 | –
298.15 K, x1 = 0.8823 | – | 28.52 ± 0.75 mN/m
298.15 K, x1 = 0.8977 | 983.45 ± 0.93 | –
298.15 K, x1 = 0.9461 | – | 28.04 ± 0.75 mN/m
298.15 K, x1 = 0.9699 | 981.95 ± 1 | –
298.15 K, x1 = 1 | 981.23 ± 1.1 | 27.56 ± 0.75 mN/m
308.15 K, x1 = 0.0009 | – | 53.01 ± 0.87 mN/m
308.15 K, x1 = 0.0017 | – | 50.04 ± 0.85 mN/m
308.15 K, x1 = 0.0026 | – | 47.96 ± 0.84 mN/m
308.15 K, x1 = 0.0039 | – | 45.41 ± 0.82 mN/m
308.15 K, x1 = 0.0109 | – | 41.72 ± 0.79 mN/m
308.15 K, x1 = 0.0173 | 1004.32 ± 0.27 | –
308.15 K, x1 = 0.0218 | – | 40.14 ± 0.78 mN/m
308.15 K, x1 = 0.0353 | – | 38.28 ± 0.77 mN/m
308.15 K, x1 = 0.0882 | – | 36.04 ± 0.75 mN/m
308.15 K, x1 = 0.0914 | 1016.26 ± 0.31 | –
308.15 K, x1 = 0.1214 | – | 34.06 ± 0.74 mN/m
308.15 K, x1 = 0.1739 | 1010.56 ± 0.32 | –
308.15 K, x1 = 0.1767 | – | 33.08 ± 0.74 mN/m
308.15 K, x1 = 0.2497 | – | 32.48 ± 0.74 mN/m and 31.82 ± 0.73 mN/m
308.15 K, x1 = 0.2731 | 1001.13 ± 0.33 | –
308.15 K, x1 = 0.34 | – | 31.44 ± 0.73 mN/m
308.15 K, x1 = 0.3468 | 995.27 ± 0.38 | –
308.15 K, x1 = 0.4141 | – | 30.89 ± 0.73 mN/m
308.15 K, x1 = 0.4515 | 988.66 ± 0.46 | –
308.15 K, x1 = 0.5272 | – | 30.74 ± 0.74 mN/m
308.15 K, x1 = 0.5727 | 982.92 ± 0.57 | –
308.15 K, x1 = 0.5837 | – | 30.15 ± 0.74 mN/m
308.15 K, x1 = 0.6451 | 980.17 ± 0.65 | –
308.15 K, x1 = 0.7176 | – | 29.76 ± 0.75 mN/m
308.15 K, x1 = 0.7766 | 976.39 ± 0.8 | –
308.15 K, x1 = 0.8234 | – | 29.38 ± 0.75 mN/m
308.15 K, x1 = 0.8679 | 974.51 ± 0.91 | –
308.15 K, x1 = 0.8977 | 973.95 ± 0.95 | –
308.15 K, x1 = 0.9458 | – | 28.74 ± 0.76 mN/m
308.15 K, x1 = 0.9699 | 972.46 ± 1.1 | –
308.15 K, x1 = 1 | 971.71 ± 1.1 | 28.48 ± 0.76 mN/m
318.15 K, x1 = 0.0014 | – | 51.81 ± 0.87 mN/m
318.15 K, x1 = 0.0021 | – | 47.47 ± 0.84 mN/m
318.15 K, x1 = 0.0028 | – | 46.1 ± 0.84 mN/m
318.15 K, x1 = 0.0039 | – | 44.63 ± 0.81 mN/m
318.15 K, x1 = 0.01 | – | 41.37 ± 0.79 mN/m
318.15 K, x1 = 0.0173 | 998.53 ± 0.26 | –
318.15 K, x1 = 0.0212 | – | 39.06 ± 0.77 mN/m
318.15 K, x1 = 0.034 | – | 37.85 ± 0.76 mN/m
318.15 K, x1 = 0.0543 | – | 35.26 ± 0.75 mN/m
318.15 K, x1 = 0.0791 | – | 32.67 ± 0.74 mN/m
318.15 K, x1 = 0.0849 | – | 32.5 ± 0.73 mN/m
318.15 K, x1 = 0.0914 | 1007.41 ± 0.29 | –
318.15 K, x1 = 0.0917 | – | 32.42 ± 0.73 mN/m
318.15 K, x1 = 0.122 | – | 32.27 ± 0.73 mN/m
318.15 K, x1 = 0.1739 | 1001.45 ± 0.29 | –
318.15 K, x1 = 0.1848 | – | 32.14 ± 0.73 mN/m
318.15 K, x1 = 0.2728 | – | 31.26 ± 0.73 mN/m
318.15 K, x1 = 0.2731 | 992.1 ± 0.35 | –
318.15 K, x1 = 0.3289 | – | 31.05 ± 0.73 mN/m
318.15 K, x1 = 0.3468 | 986.06 ± 0.4 | –
318.15 K, x1 = 0.3776 | – | 30.83 ± 0.73 mN/m
318.15 K, x1 = 0.4515 | 979.25 ± 0.49 | –
318.15 K, x1 = 0.4688 | – | 30.3 ± 0.73 mN/m
318.15 K, x1 = 0.5727 | 973.34 ± 0.6 | –
318.15 K, x1 = 0.6451 | 970.59 ± 0.67 | –
318.15 K, x1 = 0.6611 | – | 29.59 ± 0.74 mN/m
318.15 K, x1 = 0.7234 | – | 29.4 ± 0.74 mN/m
318.15 K, x1 = 0.7766 | 966.82 ± 0.82 | –
318.15 K, x1 = 0.8102 | – | 28.99 ± 0.75 mN/m
318.15 K, x1 = 0.8562 | – | 28.68 ± 0.75 mN/m
318.15 K, x1 = 0.8679 | 964.92 ± 0.93 | –
318.15 K, x1 = 0.8915 | – | 28.3 ± 0.75 mN/m
318.15 K, x1 = 0.8977 | 964.34 ± 0.97 | –
318.15 K, x1 = 0.9699 | 962.91 ± 1.1 | –
318.15 K, x1 = 1 | 962.19 ± 1.1 | 27.83 ± 0.76 mN/m
